Patent publication US9777017B2, “Tricyclic fused thiophene derivatives as JAK inhibitors” (Incyte Corporation, priority 2012, dated 2017)

Experiments:
Assay type in all cases: biochemical
human JAK1 [1] = biological target: human JAK1 (Homo sapiens, UniProt P23458); assay: In vitro JAK kinase assay (HTRF, phosphorylation of a biotinylated peptide), JAK1; details: 1 mM ATP
Description: (§1) Compounds herein were tested for inhibitory activity of JAK targets according to the following in vitro assay described in Park et al., Analytical Biochemistry 1999, 269, 94-104. The catalytic domains of human JAK1 (a.a. 837-1142), JAK2 (a.a. 828-1132) and JAK3 (a.a. 781-1124) were expressed using baculovirus in insect cells and purified. The catalytic activity of JAK1, JAK2 or JAK3 was assayed by measuring the phosphorylation of a biotinylated peptide. The phosphorylated peptide was detected by homogenous time resolved fluorescence (HTRF). IC50s of compounds were measured for each kinase in the 40 μL reactions that contain the enzyme, ATP and 500 nM peptide in 50 mM Tris (pH 7.8) buffer with 100 mM NaCl, 5 mM DTT, and 0.1 mg/mL (0.01%) BSA. For the 1 mM IC50 measurements, ATP concentration in the reactions was 1 mM. Reactions were carried out at room temperature for 1 hour and then stopped with 20 μL 45 mM EDTA, 300 nM SA-APC, 6 nM Eu-Py20 in assay buffer (Perkin Elmer, Boston, Mass.). Binding to the Europium labeled antibody took place for 40 minutes and HTRF signal was measured on a PHERA star plate reader (BMG, Cary, N.C.). The Example compounds were each tested in the Example A assay (see Table 1 for data for the compounds of the examples as tested by the assay of Example A at 1 mM ATP).

human JAK1 [2] = assay: as above; details: ratio of IC50s, 1 mM ATP
Description: as §1

human JAK2 = human JAK2 (Homo sapiens (Human), UniProt O60674); assay: In vitro JAK kinase assay (HTRF, phosphorylation of a biotinylated peptide), JAK2; design: key to JAK2 IC50 (nM): +indicates an IC50 of ≦100 nM; ++indicates an IC50 of ≦1000 nM; +++indicates an IC50 of ≦2000 nM; ++++indicates an IC50 of >2000 nM; +++++indicates that the IC50 was greater than the highest concentration tested; details: 1 mM ATP
Chain of human JAK2 (O60674 828-1132): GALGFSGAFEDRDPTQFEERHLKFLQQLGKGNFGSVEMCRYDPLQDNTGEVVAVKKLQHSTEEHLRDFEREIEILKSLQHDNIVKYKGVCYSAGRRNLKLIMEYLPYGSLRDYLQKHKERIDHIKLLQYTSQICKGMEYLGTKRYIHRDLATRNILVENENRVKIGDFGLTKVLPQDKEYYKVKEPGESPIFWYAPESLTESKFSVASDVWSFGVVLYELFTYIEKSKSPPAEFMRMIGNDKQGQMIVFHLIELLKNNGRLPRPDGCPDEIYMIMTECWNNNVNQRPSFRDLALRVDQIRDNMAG
Description: as §1

SMILES: C[C@@H](O)c1nc2cnc3ccsc3c2n1C1CCN(CCC#N)CC1 [Example 16, 3-(4-{2-[(1R)-1-Hydroxyethyl]-1H-imidazo[4,5-d]thieno[3,2-b]pyridin-1-yl}piperidin-1-yl)propanenitrile]
- IC50 (human JAK1 [1]): ≤ 1000 nM
- JAK2/JAK1 (human JAK1 [2]): >10
- IC50 (human JAK2): > 2000 nM

SMILES: N#CC[C@H]1CC[C@H](n2c(CO)nc3cnc4ccsc4c32)CC1 [Example 17, {trans-4-[2-(Hydroxymethyl)-1H-imidazo[4,5-b]thieno[3,2-b]pyridin-1-yl]cyclohexyl}acetonitrile]
- IC50 (human JAK1 [1]): ≤ 100 nM
- JAK2/JAK1 (human JAK1 [2]): >10
- IC50 (human JAK2): ≤ 1000 nM

SMILES: CS(=O)(=O)NCc1nc2cnc3ccsc3c2n1[C@H]1CC[C@H](CC#N)CC1 [Example 18, N-({1-[trans-4-(Cyanomethyl)cyclohexyl]-1H-imidazo[4,5-d]thieno[3,2-b]pyridin-2-yl}methyl)methanesulfonamide]
- IC50 (human JAK1 [1]): ≤ 100 nM
- JAK2/JAK1 (human JAK1 [2]): >10
- IC50 (human JAK2): ≤ 1000 nM

SMILES: C[C@@H](O)c1nc2cnc3ccsc3c2n1[C@H]1CCC(CO)OC1 (stereo partly drawn) [Example 19, (1R)-1-{1-[(3S)-6-(Hydroxymethyl)tetrahydro-2H-pyran-3-yl]-1H-imidazo[4,5-d]thieno[3,2-b]pyridin-2-yl}ethanol]
- IC50 (human JAK1 [1]): ≤ 1000 nM
- JAK2/JAK1 (human JAK1 [2]): >10
- JAK2 IC50 (nM) (human JAK2): +++++

SMILES: C[C@@H](O)c1nc2cnc3ccsc3c2n1[C@H]1CC[C@H](CC#N)OC1 [Example 20, ((2R,5S)-5-{2-[(1R)-1-Hydroxyethyl]-1H-imidazo[4,5-d]thieno[3,2-b]pyridin-1-yl}tetrahydro-2H-pyran-2-yl)acetonitrile]
- IC50 (human JAK1 [1]): ≤ 100 nM
- JAK2/JAK1 (human JAK1 [2]): >10
- IC50 (human JAK2): ≤ 1000 nM

SMILES: C[C@@H](O)c1nc2cnc3ccsc3c2n1[C@H]1CC[C@@H](CC#N)OC1 [Example 21, ((2S,5S)-5-{2-[(1R)-1-Hydroxyethyl]-1H-imidazo[4,5-d]thieno[3,2-b]pyridin-1-yl}tetrahydro-2H-pyran-2-yl)acetonitrile]
- IC50 (human JAK1 [1]): ≤ 1000 nM
- JAK2/JAK1 (human JAK1 [2]): >10
- JAK2 IC50 (nM) (human JAK2): +++++

SMILES: CS(=O)(=O)NCc1nc2cnc3ccsc3c2n1[C@H]1CC2CCC1C2 (stereo partly drawn) [Example 22, N-((1-((2S)-Bicyclo[2.2.1]heptan-2-yl)-1H-imidazo[4,5-d]thieno[3,2-b]pyridin-2-yl)methyl)methanesulfonamide]
- IC50 (human JAK1 [1]): ≤ 1000 nM
- JAK2/JAK1 (human JAK1 [2]): >4
- JAK2 IC50 (nM) (human JAK2): +++++

SMILES: C[C@@H](O)c1cc2cnc3ccsc3c2n1[C@H]1CC[C@H](CC#N)CC1 [Example 23, (trans-4-{7-[(1R)-1-Hydroxyethyl]-8H-pyrrolo[2,3-d]thieno[3,2-b]pyridin-8-yl}cyclohexyl)acetonitrile]
- IC50 (human JAK1 [1]): ≤ 100 nM
- JAK2/JAK1 (human JAK1 [2]): >10
- IC50 (human JAK2): ≤ 1000 nM

SMILES: N#CC[C@H]1CC[C@H](n2/c(=N/C#N)[nH]c3cnc4ccsc4c32)CC1.O=C(O)C(F)(F)F [Example 25, {(2E)-1-[trans-4-(Cyanomethyl)cyclohexyl]-1,3-dihydro-2H-imidazo[4,5-d]thieno[3,2-b]pyridin-2-ylidene}cyanamide trifluoroacetate]
- IC50 (human JAK1 [1]): ≤ 100 nM
- JAK2/JAK1 (human JAK1 [2]): >6
- IC50 (human JAK2): ≤ 1000 nM

SMILES: N#CC[C@H]1CC[C@H](n2c(C3CC3)nc3cnc4ccsc4c32)CC1 [Example 26, [trans-4-(2-Cyclopropyl-1H-imidazo[4,5-b]thieno[3,2-b]pyridin-1-yl)cyclohexyl]acetonitrile]
- IC50 (human JAK1 [1]): ≤ 100 nM
- JAK2/JAK1 (human JAK1 [2]): >10
- IC50 (human JAK2): ≤ 1000 nM

SMILES: CC(C)c1nc2cnc3ccsc3c2n1[C@H]1CC[C@H](CC#N)CC1 [Example 27, [trans-4-(2-Isopropyl-1H-imidazo[4,5-d]thieno[3,2-b]pyridin-1-yl)cyclohexyl]acetonitrile]
- IC50 (human JAK1 [1]): ≤ 100 nM
- JAK2/JAK1 (human JAK1 [2]): >10
- IC50 (human JAK2): ≤ 1000 nM

SMILES: N#CC[C@H]1CC[C@H](n2c(C3CNC3)nc3cnc4ccsc4c32)CC1 [Example 28, [trans-4-(2-Azetidin-3-yl-1H-imidazo[4,5-d]thieno[3,2-b]pyridin-1-yl)cyclohexyl]acetonitrile]
- IC50 (human JAK1 [1]): ≤ 2000 nM
- JAK2/JAK1 (human JAK1 [2]): >7
- JAK2 IC50 (nM) (human JAK2): +++++

SMILES: CN1CC(c2nc3cnc4ccsc4c3n2[C@H]2CC[C@H](CC#N)CC2)C1 [Example 29, {trans-4-[2-(1-Methylazetidin-3-yl)-1H-imidazo[4,5-d]thieno[3,2-b]pyridin-1-yl]cyclohexyl}acetonitrile]
- IC50 (human JAK1 [1]): ≤ 1000 nM
- JAK2/JAK1 (human JAK1 [2]): >9
- IC50 (human JAK2): ≤ 2000 nM

SMILES: CCNC(=O)C[C@H]1CC[C@H](n2c([C@@H](C)O)nc3cnc4ccsc4c32)CC1 [Example 31, N-Ethyl-2-(trans-4-{2-[(1R)-1-hydroxyethyl]-1H-imidazo[4,5-d]thieno[3,2-b]pyridin-1-yl}cyclohexyl)acetamide]
- IC50 (human JAK1 [1]): ≤ 1000 nM
- JAK2/JAK1 (human JAK1 [2]): >10
- JAK2 IC50 (nM) (human JAK2): +++++

SMILES: C[C@@H](O)c1nc2cnc3ccsc3c2n1C1CCCC(CCC#N)C1 (stereo partly drawn) [Example 32, 3-(3-{2-[(1R)-1-Hydroxyethyl]-1H-imidazo[4,5-d]thieno[3,2-b]pyridin-1-yl}cyclohexyl)propanenitrile]
- IC50 (human JAK1 [1]): ≤ 100 nM
- JAK2/JAK1 (human JAK1 [2]): >10
- IC50 (human JAK2): > 2000 nM

SMILES: Cc1nc2cnc3ccsc3n2c1-c1ccc(CC#N)cc1 [Example 33, [4-(7-Methylimidazo[1,2-a]thieno[3,2-e]pyrazin-8-yl)phenyl]acetonitrile]
- IC50 (human JAK1 [1]): ≤ 100 nM
- JAK2/JAK1 (human JAK1 [2]): >7
- IC50 (human JAK2): ≤ 1000 nM

SMILES: Cc1nc2cnc3ccsc3c2n1[C@H]1CC[C@H](CC#N)OC1 [Example 38, [(2R,5S)-5-(2-Methyl-1H-imidazo[4,5-d]thieno[3,2-b]pyridin-1-yl)tetrahydro-2H-pyran-2-yl]acetonitrile]
- IC50 (human JAK1 [1]): ≤ 100 nM
- JAK2/JAK1 (human JAK1 [2]): >10
- IC50 (human JAK2): ≤ 100 nM

SMILES: CCc1nc2cnc3ccsc3c2n1[C@H]1CC[C@H](CC#N)OC1 [Example 39, [(2R,5S)-5-(2-Ethyl-1H-imidazo[4,5-d]thieno[3,2-b]pyridin-1-yl)tetrahydro-2H-pyran-2-yl]acetonitrile]
- IC50 (human JAK1 [1]): ≤ 100 nM
- JAK2/JAK1 (human JAK1 [2]): >10
- IC50 (human JAK2): ≤ 1000 nM

SMILES: CC(C)c1nc2cnc3ccsc3c2n1[C@H]1CC[C@H](CC#N)OC1 [Example 42, [(2R,5S)-5-(2-Isopropyl-1H-imidazo[4,5-d]thieno[3,2-b]pyridin-1-yl)tetrahydro-2H-pyran-2-yl]acetonitrile]
- IC50 (human JAK1 [1]): ≤ 100 nM
- JAK2/JAK1 (human JAK1 [2]): >10
- IC50 (human JAK2): ≤ 1000 nM

SMILES: N#CC[C@H]1CC[C@H](n2c(C3CC3)nc3cnc4ccsc4c32)CO1 [Example 43, [(2R,5S)-5-(2-Cyclopropyl-1H-imidazo[4,5-d]thieno[3,2-b]pyridin-1-yl)tetrahydro-2H-pyran-2-yl]acetonitrile]
- IC50 (human JAK1 [1]): ≤ 100 nM
- JAK2/JAK1 (human JAK1 [2]): >10
- IC50 (human JAK2): ≤ 1000 nM

SMILES: C[C@@H](O)c1nc2cnc3ccsc3c2n1[C@@H]1CC[C@@H](CC#N)OC1 [Example 44, ((2S,5R)-5-{2-[(1R)-1-Hydroxyethyl]-1H-imidazo[4,5-b]thieno[3,2-b]pyridin-1-yl}tetrahydro-2H-pyran-2-yl)acetonitrile]
- IC50 (human JAK1 [1]): ≤ 1000 nM
- JAK2/JAK1 (human JAK1 [2]): >10
- JAK2 IC50 (nM) (human JAK2): +++++

SMILES: C[C@H](O)c1nc2cnc3ccsc3c2n1[C@H]1CC[C@H](CC#N)OC1 [Example 45, ((2R,5S)-5-{2-[(1S)-1-Hydroxyethyl]-1H-imidazo[4,5-d]thieno[3,2-b]pyridin-1-yl}tetrahydro-2H-pyran-2-yl)acetonitrile]
- IC50 (human JAK1 [1]): ≤ 100 nM
- JAK2/JAK1 (human JAK1 [2]): >10
- IC50 (human JAK2): > 2000 nM

SMILES: CCc1nc2cnc3ccsc3c2n1[C@H]1CC[C@H](CC#N)CC1 [Example 47, [trans-4-(2-Ethyl-1H-imidazo[4,5-d]thieno[3,2-b]pyridin-1-yl)cyclohexyl]acetonitrile]
- IC50 (human JAK1 [1]): ≤ 100 nM
- JAK2/JAK1 (human JAK1 [2]): >10
- IC50 (human JAK2): ≤ 1000 nM

SMILES: Cc1nc2cnc3ccsc3c2n1[C@H]1CC[C@H](CC#N)CC1 [Example 48, [trans-4-(2-Methyl-1H-imidazo[4,5-d]thieno[3,2-b]pyridin-1-yl)cyclohexyl]acetonitrile]
- IC50 (human JAK1 [1]): ≤ 100 nM
- JAK2/JAK1 (human JAK1 [2]): >7
- IC50 (human JAK2): ≤ 100 nM

SMILES: C[C@@H](O)c1nc2cnc3ccsc3c2n1[C@H]1CC[C@@H](CC#N)C1.O=C(O)C(F)(F)F [Example 49, ((4R,3S)-3-{2-[(1R)-1-Hydroxyethyl]-1H-imidazo[4,5-d]thieno[3,2-b]pyridin-1-yl}cyclopentyl)acetonitrile trifluoroacetate]
- IC50 (human JAK1 [1]): ≤ 1000 nM
- JAK2/JAK1 (human JAK1 [2]): >10
- JAK2 IC50 (nM) (human JAK2): +++++
